Laboratory results: PubChem BioAssay AID2060909 (Molecular Pharmacology Branch, DTP, NCI, 2025)

Test system: 362531-283-R-J2-PDC complex spheroid viability
Experiment: Anticancer human tumor 362531-283-R-J2-PDC patient-derived colon adenocarcinoma cell line growth inhibition [RAS]
Conditions: for IC50: curve of first compound; for viability, T/C: stronger effect = lower value; active = viability on the fitted dose curve at most 10% of control; inactive = the rest
Method in brief: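 Multi-cell-type spheroids: tumor cells plus HUVEC endothelial cells and mesenchymal stem cells. RAS-pathway inhibitors were combined with targeted agents, each dosed in half-log steps down from clinical Cmax, or from 10 microM when Cmax was unknown.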

[1] = second compound 0.000949 µM, first compound 0.00316 µM
[2] = second compound 0.000949 µM, first compound 0.01 µM
[3] = second compound 0.000949 µM, first compound 0.0316 µM
[4] = second compound 0.000949 µM, first compound 0.1 µM
[5] = second compound 0.000949 µM, first compound 0.316 µM
[6] = second compound 0.000949 µM, first compound 1 µM
[7] = second compound 0.003 µM, first compound 0.00316 µM
[8] = second compound 0.003 µM, first compound 0.01 µM
[9] = second compound 0.003 µM, first compound 0.0316 µM
[10] = second compound 0.003 µM, first compound 0.1 µM
[11] = second compound 0.003 µM, first compound 0.316 µM
[12] = second compound 0.003 µM, first compound 1 µM
[13] = second compound 0.00949 µM, first compound 0.00316 µM
[14] = second compound 0.00949 µM, first compound 0.01 µM
[15] = second compound 0.00949 µM, first compound 0.0316 µM
[16] = second compound 0.00949 µM, first compound 0.1 µM
[17] = second compound 0.00949 µM, first compound 0.316 µM
[18] = second compound 0.00949 µM, first compound 1 µM
[19] = second compound 0.03 µM, first compound 0.00316 µM
[20] = second compound 0.03 µM, first compound 0.01 µM
[21] = second compound 0.03 µM, first compound 0.0316 µM
[22] = second compound 0.03 µM, first compound 0.1 µM
[23] = second compound 0.03 µM, first compound 0.316 µM
[24] = second compound 0.03 µM, first compound 1 µM
[25] = second compound 0.0949 µM, first compound 0.00316 µM
[26] = second compound 0.0949 µM, first compound 0.01 µM
[27] = second compound 0.0949 µM, first compound 0.0316 µM
[28] = second compound 0.0949 µM, first compound 0.1 µM
[29] = second compound 0.0949 µM, first compound 0.316 µM
[30] = second compound 0.0949 µM, first compound 1 µM
[31] = second compound 0.3 µM, first compound 0.00316 µM
[32] = second compound 0.3 µM, first compound 0.01 µM
[33] = second compound 0.3 µM, first compound 0.0316 µM
[34] = second compound 0.3 µM, first compound 0.1 µM
[35] = second compound 0.3 µM, first compound 0.316 µM
[36] = second compound 0.3 µM, first compound 1 µM
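Note: spheroids exposed to the agents for 7 days before readout.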
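Throughout, for viability, T/C: luminescence viability as percent of DMSO vehicle control wells.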

C=CC(=O)Nc1cc(Nc2nccc(-c3cn(C)c4ccccc34)n2)c(OC)cc1N(C)CCN(C)C + CCn1c(-c2cccnc2C(C)OC)c2c3cc(ccc31)N1CCOC(CC(NC(=O)C(C(C)C)N(C)C(=O)C3(F)CCN(C(=O)C#CC(C)(C)N(C)C)CC3)C(=O)N3CCCC(N3)C(=O)OCC(C)(C)C2)C1
> 1000 nM: IC50 (second compound 0.000949 µM) | IC50 (second compound 0.003 µM) | IC50 (second compound 0.00949 µM) | IC50 (second compound 0.03 µM) | IC50 (second compound 0.0949 µM) | IC50 (second compound 0.3 µM)
inactive: viability, T/C [1] 92.4% | viability, T/C [2] 93.8% | viability, T/C [3] 104% | viability, T/C [4] 98.1% | viability, T/C [5] 98% | viability, T/C [6] 75.1% | viability, T/C [7] 108% | viability, T/C [8] 107% | viability, T/C [9] 103% | viability, T/C [10] 98.6% | viability, T/C [11] 95.4% | viability, T/C [12] 68.8% | viability, T/C [13] 112% | viability, T/C [14] 103% | viability, T/C [15] 101% | viability, T/C [16] 104% | viability, T/C [17] 101% | viability, T/C [18] 82.2% | viability, T/C [19] 98.6% | viability, T/C [20] 99.9% | viability, T/C [21] 100% | viability, T/C [22] 101% | viability, T/C [23] 101% | viability, T/C [24] 82.7% | viability, T/C [25] 98.4% | viability, T/C [26] 97.1% | viability, T/C [27] 99% | viability, T/C [28] 106% | viability, T/C [29] 106% | viability, T/C [30] 79.2% | viability, T/C [31] 91.3% | viability, T/C [32] 90.1% | viability, T/C [33] 99.6% | viability, T/C [34] 96.6% | viability, T/C [35] 104% | viability, T/C [36] 83.6%

CC(C)NCC(C(=O)N1CCN(c2ncnc3c2C(C)CC3O)CC1)c1ccc(Cl)cc1 (stereo not drawn) + C#Cc1c(F)ccc2cc(O)cc(-c3ncc4c(N5CC6CCC(C5)N6)nc(OCC56CCCN5CC(F)C6)nc4c3F)c12
< 31.6 nM: IC50 (second compound 10 µM)
> 10000 nM: IC50 (second compound 0.0316 µM) | IC50 (second compound 0.1 µM) | IC50 (second compound 0.316 µM) | IC50 (second compound 1 µM) | IC50 (second compound 3.16 µM)
inactive: viability, T/C (second compound 0.0316 µM, first compound 0.0316 µM) 98.4% | viability, T/C (second compound 0.0316 µM, first compound 0.1 µM) 100% | viability, T/C (second compound 0.0316 µM, first compound 0.316 µM) 89.4% | viability, T/C (second compound 0.0316 µM, first compound 1 µM) 102% | viability, T/C (second compound 0.0316 µM, first compound 3.16 µM) 96.7% | viability, T/C (second compound 0.0316 µM, first compound 10 µM) 87.5% | viability, T/C (second compound 0.1 µM, first compound 0.0316 µM) 84.4% | viability, T/C (second compound 0.1 µM, first compound 0.1 µM) 105% | viability, T/C (second compound 0.1 µM, first compound 0.316 µM) 94.9% | viability, T/C (second compound 0.1 µM, first compound 1 µM) 96.6% | viability, T/C (second compound 0.1 µM, first compound 3.16 µM) 102% | viability, T/C (second compound 0.1 µM, first compound 10 µM) 95% | viability, T/C (second compound 0.316 µM, first compound 0.0316 µM) 94% | viability, T/C (second compound 0.316 µM, first compound 0.1 µM) 95.5% | viability, T/C (second compound 0.316 µM, first compound 0.316 µM) 92.6% | viability, T/C (second compound 0.316 µM, first compound 1 µM) 82.4% | viability, T/C (second compound 0.316 µM, first compound 3.16 µM) 83.7% | viability, T/C (second compound 0.316 µM, first compound 10 µM) 65.1% | viability, T/C (second compound 1 µM, first compound 0.0316 µM) 79.9% | viability, T/C (second compound 1 µM, first compound 0.1 µM) 88.1% | viability, T/C (second compound 1 µM, first compound 0.316 µM) 78.3% | viability, T/C (second compound 1 µM, first compound 1 µM) 81% | viability, T/C (second compound 1 µM, first compound 3.16 µM) 81.1% | viability, T/C (second compound 1 µM, first compound 10 µM) 75.5% | viability, T/C (second compound 3.16 µM, first compound 0.0316 µM) 61.5% | viability, T/C (second compound 3.16 µM, first compound 0.1 µM) 73.6% | viability, T/C (second compound 3.16 µM, first compound 0.316 µM) 66.9% | viability, T/C (second compound 3.16 µM, first compound 1 µM) 87% | viability, T/C (second compound 3.16 µM, first compound 3.16 µM) 63% | viability, T/C (second compound 3.16 µM, first compound 10 µM) 53.2% | viability, T/C (second compound 10 µM, first compound 0.0316 µM) 43.3% | viability, T/C (second compound 10 µM, first compound 0.1 µM) 39.6% | viability, T/C (second compound 10 µM, first compound 0.316 µM) 43.9% | viability, T/C (second compound 10 µM, first compound 1 µM) 47% | viability, T/C (second compound 10 µM, first compound 3.16 µM) 50.6% | viability, T/C (second compound 10 µM, first compound 10 µM) 39.3%

Cc1nc(N2CCC3(CC2)COC(C)C3N)c(CO)nc1Sc1ccnc(N)c1Cl (stereo not drawn) + CCn1c(-c2cc(N3CCN(C)CC3)cnc2C(C)OC)c2c3cc(ccc31)-c1csc(n1)CC(NC(=O)C1CC1C)C(=O)N1CCCC(N1)C(=O)OCC(C)(C)C2
active: viability, T/C (second compound 0.03 µM, first compound 10 µM) 7.23% | viability, T/C (second compound 0.0949 µM, first compound 3.16 µM) 8.1% | viability, T/C (second compound 0.0949 µM, first compound 10 µM) 4.24% | viability, T/C [36] 6.49% | viability, T/C (second compound 0.3 µM, first compound 3.16 µM) 5.54% | viability, T/C (second compound 0.3 µM, first compound 10 µM) 3.65%
1870 nM: IC50 (second compound 0.03 µM)
inactive: viability, T/C [3] 95.4% | viability, T/C [4] 122% | viability, T/C [5] 89% | viability, T/C [6] 93.7% | viability, T/C (second compound 0.000949 µM, first compound 3.16 µM) 86.4% | viability, T/C (second compound 0.000949 µM, first compound 10 µM) 70.5% | viability, T/C [9] 103% | viability, T/C [10] 113% | viability, T/C [11] 94.8% | viability, T/C [12] 89.6% | viability, T/C (second compound 0.003 µM, first compound 3.16 µM) 92.8% | viability, T/C (second compound 0.003 µM, first compound 10 µM) 72.4% | viability, T/C [15] 104% | viability, T/C [16] 113% | viability, T/C [17] 84.7% | viability, T/C [18] 88.9% | viability, T/C (second compound 0.00949 µM, first compound 3.16 µM) 88% | viability, T/C (second compound 0.00949 µM, first compound 10 µM) 37.1% | viability, T/C [21] 102% | viability, T/C [22] 104% | viability, T/C [23] 74.3% | viability, T/C [24] 68.9% | viability, T/C (second compound 0.03 µM, first compound 3.16 µM) 36.9% | viability, T/C [27] 77.7% | viability, T/C [28] 77% | viability, T/C [29] 65.2% | viability, T/C [30] 30.9% | viability, T/C [33] 47.3% | viability, T/C [34] 37.8% | viability, T/C [35] 18.9%
529 nM: IC50 (second compound 0.0949 µM)
< 31.6 nM: IC50 (second compound 0.3 µM)
7340 nM: IC50 (second compound 0.00949 µM)
> 10000 nM: IC50 (second compound 0.000949 µM) | IC50 (second compound 0.003 µM)

Nc1ccn(C2OC(CO)C(O)C2(F)F)c(=O)n1 (stereo not drawn) + CCn1c(-c2cc(N3CCN(C)CC3)cnc2C(C)OC)c2c3cc(ccc31)-c1csc(n1)CC(NC(=O)C1CC1C)C(=O)N1CCCC(N1)C(=O)OCC(C)(C)C2
177 nM: IC50 (second compound 0.003 µM)
inactive: viability, T/C [1] 98.9% | viability, T/C [2] 108% | viability, T/C [3] 80.5% | viability, T/C [4] 75.7% | viability, T/C [5] 23.7% | viability, T/C [6] 27.7% | viability, T/C [7] 110% | viability, T/C [8] 91% | viability, T/C [9] 82% | viability, T/C [10] 75.7% | viability, T/C [11] 18.9% | viability, T/C [12] 29.3% | viability, T/C [13] 95% | viability, T/C [14] 101% | viability, T/C [15] 66.7% | viability, T/C [16] 69.5% | viability, T/C [17] 17.6% | viability, T/C [18] 24.9% | viability, T/C [19] 97.9% | viability, T/C [20] 86.8% | viability, T/C [21] 75.5% | viability, T/C [22] 63.6% | viability, T/C [23] 15.3% | viability, T/C [24] 21.6% | viability, T/C [25] 80.2% | viability, T/C [26] 80% | viability, T/C [27] 64.4% | viability, T/C [28] 49.9% | viability, T/C [29] 10.8% | viability, T/C [30] 17.4% | viability, T/C [31] 40.9% | viability, T/C [32] 46.2% | viability, T/C [33] 28.5% | viability, T/C [34] 25.1% | viability, T/C [35] 14.6% | viability, T/C [36] 10.3%
141 nM: IC50 (second compound 0.03 µM)
181 nM: IC50 (second compound 0.000949 µM)
< 3.16 nM: IC50 (second compound 0.3 µM)
128 nM: IC50 (second compound 0.00949 µM)
80 nM: IC50 (second compound 0.0949 µM)
